Patent US20140166028A1, “Enhanced Delivery of Nicotine, THC, Tobacco, Cannabidiol or Base Alkaloid from an Electronic Cigarette or Other Vapor or Smoke Producing Device Through Use of an Absorption Conditioning Unit” (priority 2012, published 2014)
“And” between values parts separate entries of the source, which are not always exact repeats. Equal entries are not always repeated.

Key:
[1] = Buffer power test: pH on 1X, 2X, 3X dilution with Dulbecco's phosphate buffered saline (DPBS); assay type: physicochemical; conditions: for pH 1X DPBS: 1X dilution with DPBS; for pH 1X DPBS / pH 2X DPBS / pH 3X DPBS / pH 0X DPBS: 22-23° C.; for 1× pH: 1× dilution with DPBS; for pH 2X DPBS: 2X dilution with DPBS; for 2× pH: 2× dilution with DPBS; for pH 3X DPBS: 3X dilution with DPBS; for 3× pH: 3× dilution with DPBS; for pH of the product or solution: undiluted (0×); for pH 0X DPBS: undiluted
Protocol: The pH of the resulting solution is tested and the test is passed if the resulting solution has a pH below 6.0.”
A Dulbecco phosphate buffer saline solution (DPBS) was purchased and used for all compositions at the 1×, 2× and 3× dilution. A typical composition for DPBS is provided below:

[2] = capsules with sesame oil, oral; cited from earlier work

| SMILES | pH 1X DPBS [1] | 1× pH [1] | pH 2X DPBS [1] | 2× pH [1] | pH 3X DPBS [1] | 3× pH [1] | pH of the product or solution ([1]; listed as 0.1M Sodium Carbonate) | pH of the product or solution ([1]; listed as Sodium carbonate solution: 0.1M) | pH 0X DPBS [1] | pH 1X DPBS ([1]; listed as NaHCO3 .1M*) | pH 1X DPBS ([1]; listed as NaHCO3 .1M**) | pH 2X DPBS ([1]; listed as NaHCO3 .1M*) | pH 2X DPBS ([1]; listed as NaHCO3 .1M**) | pH 3X DPBS ([1]; listed as NaHCO3 .1M*) | pH 3X DPBS ([1]; listed as NaHCO3 .1M**) | pH of the product or solution [1] | fraction entering the systemic circulation [2] |
| --- | --- | --- | --- | --- | --- | --- | --- | --- | --- | --- | --- | --- | --- | --- | --- | --- | --- |
| O=C([O-])[O-].[Na+].[Na+] [Na2CO3 .1M, sodium carbonate] | 10.9 and 11.1 | 10.9 | 11.1 | 10.8 | 11.1 | 10.6 | 11.3 | 11.5 | 11.5 and 11.3 | – | – | – | – | – | – | – | – |
| O=C([O-])O.[Na+] [0.1M Sodium Bicarbonate, sodium bicarbonate] | – | 7.9 and 7.7 | – | 7.5 | – | 7.5 | – | – | 8.1 | 7.9 and 7.7 | 7.7 | 7.5 and 7.6 | 7.5 | 7.5 and 7.6 | 7.5 | 8.1 | – |
| CCCCCc1cc(O)c2c(c1)OC(C)(C)[C@@H]1CCC(C)=C[C@@H]21 [dronabinol] | – | – | – | – | – | – | – | – | – | – | – | – | – | – | – | – | 10-20% |
